Literature values in PMC4110205 (Toxicology and applied pharmacology, 2014).

Target: T1, hFMO2.1 (Homo sapiens, UniProt Q99518)
T1 sequence (Q99518 1-535): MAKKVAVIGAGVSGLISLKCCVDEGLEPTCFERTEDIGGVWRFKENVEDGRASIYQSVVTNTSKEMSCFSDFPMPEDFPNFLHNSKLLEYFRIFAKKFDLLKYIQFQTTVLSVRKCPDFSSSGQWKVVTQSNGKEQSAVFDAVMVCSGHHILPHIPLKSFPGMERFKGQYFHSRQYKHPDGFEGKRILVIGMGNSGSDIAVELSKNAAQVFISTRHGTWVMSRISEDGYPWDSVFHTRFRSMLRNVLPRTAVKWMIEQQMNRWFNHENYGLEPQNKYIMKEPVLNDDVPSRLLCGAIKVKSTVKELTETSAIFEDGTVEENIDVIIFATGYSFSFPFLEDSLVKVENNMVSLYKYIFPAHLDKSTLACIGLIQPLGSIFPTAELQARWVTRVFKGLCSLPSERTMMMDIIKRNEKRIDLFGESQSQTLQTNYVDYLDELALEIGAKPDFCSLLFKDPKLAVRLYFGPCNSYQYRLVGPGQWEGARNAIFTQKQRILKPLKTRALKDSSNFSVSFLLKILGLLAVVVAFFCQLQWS
Settings: expressed hFMO2; ref Henderson et al., 2004
For `S=C1NCCN1` [ethylenethiourea], the Km is listed as 14 µM and the kcat is listed as 0.8 s⁻¹. In the case of `NC(N)=S` [Thiourea], the Km is listed as 27 µM and the kcat is listed as 0.85 s⁻¹. For `NC(=S)Nc1ccccc1` [phenylthiourea], the Km is listed as 29 µM and the kcat is listed as 0.4 s⁻¹. For `NC(=S)Nc1cccc2ccccc12` [α-naphthylthiourea], the Km is given as 42 µM and the kcat is given as 0.55 s⁻¹.
